Reference: ChEMBL document CHEMBL1201862, “PubChem BioAssay data set” (2004)
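Results reflect a 48-hour exposure of cells in 96-well plates to compound at five concentrations. The concentration for 50% growth inhibition is given as GI50.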 The source made the active and inactive calls. Cut-off read from the data, not from the text of the source: active = GI50 up to about 1.1 µM and inactive = higher.

What was measured:
Experiment in all cases: inhibition of tumour cell growth, NCI panel, 48 h
DLD-1 = tested on: DLD-1
DMS-273 = tested on: DMS-273
KM-20L2 = tested on: KM-20L2
LXFL 529 = tested on: LXFL 529
M19-MEL = tested on: M19-MEL
XF498 = tested on: XF498
DMS-114 = tested on: DMS-114
SNB-78 = tested on: SNB-78
RXF 631 = tested on: RXF 631

Compound	GI50 (DLD-1)	GI50 (DMS-273)	GI50 (KM-20L2)	GI50 (LXFL 529)	GI50 (M19-MEL)	GI50 (XF498)	GI50 (DMS-114)	GI50 (SNB-78)	GI50 (RXF 631)
O=C(O)CCNS(=O)(=O)c1ccc2ccccc2c1	> 100 µM (inactive)	> 100 µM (inactive)	> 100 µM (inactive)	> 100 µM (inactive)	> 100 µM (inactive)	> 100 µM (inactive)			
CC(C)(C)OC(=O)NCC(=O)OCc1ccccc1	> 100 µM (inactive)	> 100 µM (inactive)		> 100 µM (inactive)	> 100 µM (inactive)	> 100 µM (inactive)	> 100 µM (inactive)	> 100 µM (inactive)	
c1nc2cscc2c2cscc12		> 100 µM (inactive)		> 100 µM (inactive)	> 100 µM (inactive)	> 100 µM (inactive)	> 100 µM (inactive)	> 100 µM (inactive)	
O=C(OCCOCBr)c1ccccc1	> 100 µM (inactive)	> 100 µM (inactive)	> 100 µM (inactive)	> 100 µM (inactive)			> 100 µM (inactive)	> 100 µM (inactive)	> 100 µM (inactive)
NCCn1cnc2nc(NC(=O)c3ccccc3)[nH]c(=O)c21	> 100 µM (inactive)		> 100 µM (inactive)	> 100 µM (inactive)	> 100 µM (inactive)		> 100 µM (inactive)	> 100 µM (inactive)	> 100 µM (inactive)
O=c1c2c(nc3n1CCC3)sc1c(O)c(Br)ccc12	27.7 µM (inactive)	14.9 µM (inactive)	13.5 µM (inactive)		16.3 µM (inactive)	21.5 µM (inactive)	16.3 µM (inactive)	33.3 µM (inactive)	
CCOC(=O)c1oc2c(OC)cc(Cl)c3c2c1CCC3	> 100 µM (inactive)	92 µM (inactive)		> 100 µM (inactive)	> 100 µM (inactive)	19.5 µM (inactive)	> 100 µM (inactive)	> 100 µM (inactive)	
COc1ccc2c(c1OCC(=O)O)C(=O)C(CCC(=O)O)CC2 (stereo not given)	> 100 µM (inactive)	> 100 µM (inactive)	> 100 µM (inactive)	> 100 µM (inactive)	> 100 µM (inactive)	71.1 µM (inactive)	> 100 µM (inactive)	> 100 µM (inactive)	> 100 µM (inactive)
O=[N+]([O-])c1cc(I)cc(/C=N/NS(=O)(=O)c2ccc(Cl)cc2)c1O	26 µM (inactive)	19.8 µM (inactive)	36 µM (inactive)	19.4 µM (inactive)	25.2 µM (inactive)			27.5 µM (inactive)	22.7 µM (inactive)
CCC(O)C1Cc2c(C)cc3c(c2O1)C(=O)c1ccccc1C3=O (stereo not given)	42 µM (inactive)	28.7 µM (inactive)	35.2 µM (inactive)	28.8 µM (inactive)	41.7 µM (inactive)	14.3 µM (inactive)	25.4 µM (inactive)	33.2 µM (inactive)	
Cc1nn(C)c(=S)n(C)c1=O	3.16 µM (inactive)	0.427 µM (active)	24.9 µM (inactive)	0.515 µM (active)	0.624 µM (active)	1.15 µM (inactive)	0.269 µM (active)	3.18 µM (inactive)	
COc1cccc(NC(=O)CSc2nnc(-c3ccc(/N=C\c4ccc(Cl)cc4)cc3)o2)c1		> 10 µM (inactive)	16.9 µM (inactive)	19.8 µM (inactive)	22.8 µM (inactive)	19.2 µM (inactive)	20.5 µM (inactive)	40.3 µM (inactive)	
O=C(O)CCC1(Br)CCCCC(Br)C1=O (stereo not given)		> 100 µM (inactive)	> 100 µM (inactive)	> 100 µM (inactive)	> 100 µM (inactive)	> 100 µM (inactive)	> 100 µM (inactive)	> 100 µM (inactive)	
CC1(c2cccc3ccccc23)OC(=O)c2ccccc21 (stereo not given)	22.5 µM (inactive)	10.8 µM (inactive)	17.2 µM (inactive)	26.5 µM (inactive)	21.3 µM (inactive)	18.2 µM (inactive)	13.4 µM (inactive)	41.7 µM (inactive)	20.2 µM (inactive)
CCCCCCCCCCCCCc1nnn[nH]1	17.1 µM (inactive)		20.2 µM (inactive)	17.3 µM (inactive)	19.7 µM (inactive)		18.5 µM (inactive)	21.4 µM (inactive)	15.4 µM (inactive)
N/N=C(/Cc1nc2ccc(C(=O)c3ccccc3)cc2nc1O)C(=O)Nc1ccc([N+](=O)[O-])cc1[N+](=O)[O-]		> 10 µM (inactive)	> 100 µM (inactive)	> 10 µM (inactive)	> 10 µM (inactive)	8.07 µM (inactive)	> 10 µM (inactive)	> 10 µM (inactive)	
CCC1(O)C(=O)OCc2c1cc1n(c2=O)Cc2cc3cc4c(cc3nc2-1)OCO4 (stereo not given)	0.0759 µM (active)	< 0.01 µM (active)	0.0137 µM (active)	0.0617 µM (active)	< 0.01 µM (active)	< 0.0185 µM (active)	< 0.01 µM (active)	3.37 µM (inactive)	0.0176 µM (active)
O=c1[nH]n2c(=O)cc[nH]c2c1-c1nnns1	> 100 µM (inactive)	> 100 µM (inactive)	> 100 µM (inactive)	> 100 µM (inactive)	> 100 µM (inactive)	> 100 µM (inactive)	> 100 µM (inactive)	> 100 µM (inactive)	
Cc1nc2c(n1-c1ccc(Br)cc1)C(=O)c1ccccc1C2=O	7.59 µM (inactive)	4.49 µM (inactive)					26 µM (inactive)	14.6 µM (inactive)	2.06 µM (inactive)
Cc1ccc(/C=N/C23CC4CC(CC(C4)C2)C3)cc1		> 100 µM (inactive)	> 100 µM (inactive)		> 100 µM (inactive)	83 µM (inactive)	27.5 µM (inactive)	> 100 µM (inactive)	
C[C@]12Cc3conc3C(O)=C1CC[C@@H]1C2CC[C@@]2(C)C1CC[C@@H]2O (stereo not given in full)		5.22 µM (inactive)	29.5 µM (inactive)	15 µM (inactive)	11.7 µM (inactive)	15 µM (inactive)		22.2 µM (inactive)	
CC(=O)O[C@]1(C)CCC2C(C)C(=O)OC2C2C(C)[C@@H](O)CC21 (stereo not given in full)	41.4 µM (inactive)	22.4 µM (inactive)	29.3 µM (inactive)	21.7 µM (inactive)	23.2 µM (inactive)			74 µM (inactive)	
Clc1ccc2c(NCCCCCCNc3ccnc4cc(Cl)ccc34)ccnc2c1	3.03 µM (inactive)	2.98 µM (inactive)	1.99 µM (inactive)	2.33 µM (inactive)	3.13 µM (inactive)	1.57 µM (inactive)	1.8 µM (inactive)	1.86 µM (inactive)	2.44 µM (inactive)
